In patent US9884806B2, “Cyclic vinylogous amides as bromodomain inhibitors” (ICAHN SCHOOL OF MEDICINE AT MOUNT SINAI, priority 2013, dated 2018):
pIC50: −log10 of the molar value. Where two headings read alike, the source gives them in different places.

How the values were obtained:
[1] = target: T1, first bromodomain (BrD1) of human BRD4 (Homo sapiens, UniProt O60885); experiment: Fluorescence anisotropy binding assay (competition with FITC-labeled MS417 probe); conditions: FITC-MS417 probe 80 nM, PBS pH 7.4, 1 hour, 25° C., read-out: BRD4_1 IC50
T1 construct: the first bromodomain (BrD1) of human BRD4; poly-His (cleaved yes); made in house
In short: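 Competitive fluorescence anisotropy in PBS pH 7.4: 80 nM FITC-MS417 probe, 0.25 to 1 μM tag-cleaved BrD1, titrated unlabeled ligand, 1 hour at 25° C. IC50 values were fitted and converted to Ki using a corrected Cheng-Prusoff equation assuming one-site competition.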

[2] = tested on: IL-6 secretion in RAW264.7 cells; experiment: LPS-induced IL-6 secretion in murine macrophage RAW264.7 cells (ELISA); format: cell-based; conditions: LPS 1 μg/ml, 24 hours, mouse IL-6 ELISA
Procedure: LPS-Induced IL-6Secretion In Murine Macrophage Raw264.7 Cells RAW264.7 cells were cultivated in Dulbecco's modified Eagle medium (DMEM) (Hyclone, Logan, Utah) supplemented with 10% FBS (fetal bovine serum) (Hyclone, Logan, Utah) at 37° C. in a humidified atmosphere of 5% CO2. Cells in 96-well plates (0.1 ml, 3×10^5 cells/ml) were treated with the test compounds. After 30 min, all supernatants were removed and cells were treated with LPS (lipopolysaccharide) (1 μg/ml) (Sigma-Aldrich Chemical Co., St. Louis, Mo.) and compounds. After 24 hours, the supernatant was collected and mouse IL-6 protein level was measured using ELISA (enzyme-linked immunosorbent assay) (Thermo Scientific, Pittsburgh, Pa.). The compounds dissolved in DMSO were diluted with culture medium to concentrations from 0.28 to 50,000 nM. The final concentration of DMSO was adjusted to 0.05% (v/v). The assay was measured by an absorption reading at 570 nm using EnVison 2104 Multilabel Reader (PerkinElmer, Inc., Waltham, Mass.). Each experiment was performed at least in triplicate, and plotted using Prim, and an IC50 value was calculated.

[3] = tested on: mRNA transcript levels of cytokines IL-6, IL-1β and TNFα in RAW264.7 cells; experiment: LPS-induced transcriptional activation of cytokines in murine macrophage cells (quantitative PCR); format: cell-based; conditions: Mus musculus
Procedure: LPS-Induced Transcriptional Activation of Cytokines in Murine Macrophage Cells RAW264.7 cells were cultivated with or without a treatment of the compounds as described above. Total RNA was isolated the cells using TRIzol reagent (Gibco, Grand Island, N.Y.) for homogenization. The concentration and integrity of RNA were determined by measuring absorbance at a 260 nm/280 nm ratio. Quantitative PCR was performed to determine the mRNA transcript levels of cytokines IL-6, IL-1β and TNFα with specific primers for these target genes. Each experiment was performed at least in triplicate, and plotted using Prim, and an IC50 value was calculated.

[4] = tested on: NO release in RAW264.7 cells; experiment: LPS-stimulated nitric oxide (NO) release in murine macrophage RAW264.7 cells (Griess reaction); format: cell-based; conditions: Mus musculus; RAW264.7 cells, LPS 1 μg/ml, 24 hours, nitrite by Griess reaction; read-out: IC50 in inhibition of LPS-induced NO release
Procedure: LPS-Stimulated Nitric Oxide (NO) Release in Murine Macrophage RAW264.7 Cells
RAW264.7 cells was cultivated in DMEM supplemented with 10% FBS at 37° C. in a humidified atmosphere of 5% CO2. Cells in 96-well plates (0.1 ml, 3×10^5 cells/ml) were treated with the test compounds. After 30 min, all supernatants were removed and cells were treated with LPS (1 μg/ml) and the test compounds. After 24 hours, the level of nitrite was measured using Griess reaction G2930 (Promega Corp., Madison, Wis.) [see Bredt and Snyder, Ann Rev Biochem 63, 175-195 (1994)]. The test compounds dissolved in DMSO were diluted with culture medium to concentrations from 0.28 to 50,000 nM. The final concentration of DMSO was adjusted to 0.05% (v/v). The nitrite production was measured by spectrophotometry at 520 nm using EnVison 2104 Multilabel Reader (PerkinElmer, Inc., Waltham, Mass.). Each experiment was performed at least in triplicate and plotted using Prism.

BRD4_2 = target: T2, BRD4_2 (Homo sapiens, UniProt O60885); experiment: Fluorescence anisotropy binding assay (competition with FITC-labeled MS417 probe), BRD4_2; conditions: FITC-MS417 probe 80 nM, PBS pH 7.4, 1 hour, 25° C.
T2 construct: contains two tandem bromodomains (BrD1 and BrD2)

[5] = tested on: IL-8 expression in human basal-like breast cancer cells (BLBCs); experiment: ELISA assay assessing IL-8 expression in BLBCs; format: cell-based; conditions: read-out: IC50, inhibition of IL-8 expression
Procedure: ELISA Assay Assessing IL-8 Expression in BLBCs […] The following day upon cells adhesion to the plate bottom, all supernatants were carefully discarded followed by adding test compounds diluted in culturing medium. The test compounds dissolved in DMSO (Sigma-Aldrich Chemical Co., St. […] The final concentration of DMSO was adjusted to 0.05% (v/v). At the end of 24-hour incubation, all supernatants were carefully removed and stored at −80° C. if the subsequent steps would not be performed immediately. The Human IL-8 ELISA Ready-Set-Go! (2nd generation) is used (Catalog No. 88-8086) against the prepared samples. The samples along with the Standard Human IL-8 Recombinant Protein (prepared in duplicates in a 2-fold serial dilution from 250 pg/ml to 2 pg/ml) were incubated overnight for maximal sensitivity. The assay was measured by an absorption reading at 450 nm using EnVision 2104 Multilabel Reader (PerkinElmer, Inc., Waltham, Mass.). Each experiment was performed at least in duplicate and plotted using Prism. The curve fitting equation used was “log(inhibitor) vs. response variable slope (four parameters)”.

[6] = Human, rat, and mouse microsome stability assay; format: in vitro ADME; conditions: Sprague-Dawley (rat), CD1 (mouse), pH 7.4, rat, and mouse liver microsomes, 0.5 μM compound, 0.25 mg/mL microsomal protein, 37° C., read-out: intrinsic clearance Clint
Procedure: Human, Rat, and Mouse Microsome Stability Assay
Human, rat, and mouse liver microsomal incubations were carried out at 37° C. with a final incubation volume of 135 μL. Human liver microsomes (mixed gender, Catalog No. H2610) were obtained from XenoTech. Rat liver microsomes (male Sprague-Dawley, Catalog No. 452501) were obtained from BD Gentest. Mouse liver microsomes (male CD1, Catalog No. 452701) were obtained from BD Gentest. Incubations were conducted using a test compound (initially dissolved in DMSO at […] concentration) concentration of 0.5 μM and 0.25 mg/mL microsomal protein in 50 mM phosphate buffer at pH 7.4. Time zero samples were prepared by transferring 13.5 μL of compound-microsomal mix to the quench plates containing 45 μL of quench solution made of 10 nM Buspirone (Sigma) or 50 nM Carbutamide (Princeton Bio) as internal standard in 1:1 methanol:acetonitrile. An aliquot of 1.5 μL Nicotinamide adenine dinucleotide phosphate reduced tetrasodium salt (NADPH) was also added to the time zero plates. The reaction was then initiated by the addition of 13.5 μL NADPH to the compound-microsomal mix. At each of the remaining time points (5, 10, 15, 20, 30, 45 and 60 min) 15 μL of incubation mixture was added to 45 μL of quench solution. Samples were centrifuged for 15-30 minutes at 3800 rpm. Samples were then pooled for 6 per group. An aliquot of 60 μL of supernatant was transferred to 96-well plate, and a 5 μL aliquot was injected and analyzed by LC-MS (Applied Biosystems API 5500 QTrap).

[7] = tested on: primary human AML stem- and progenitor cells; conditions: cited from earlier work
HIV-1 transgenic mice = conditions: model for HIV-associated nephropathy; cited from earlier work
[8] = tested on: T-cell-transfer colitis model in Rag1−/− mice; experiment: T-cell-transfer colitis study and histopathology; format: in vivo
Description: FIG. 1 is a graph of body weight as percent change from baseline vs time (in weeks) for treated and untreated mice in which inflammatory colitis has been induced.
FIG. 2 is a gray-scale rendering of a photograph showing the gross morphology of the intestines for treated and untreated mice in which inflammatory colitis has been induced compared to a normal (control) intestine.
T-Cell-Transfer Colitis Study and Histopathology
After 5-7 weeks, mice were killed and colon tissues were excised. Tissues were fixed in 10% buffered formalin and paraffin embedded. The sections (5 μm) of tissue samples stained with hematoxylin and eosin. All the slides were read and scored by an experienced pathologist without previous knowledge of the type of treatment. The degree of inflammation in the epithelium, submucosa and muscularis propria was scored separately.

[9] = panel of human BLBC cells MDA-MB-435S, MDA-MB-231, BT-549, MDA-MB-157, HS578T, SUM1315, 24-hour incubation

Compound	pIC50 [1]	pIC50 (BRD4_2)	microsomal CLint at 0.5 μM [6] [µL/min/mg]	melting point [°C]	further results
CC1=C(Nc2ccc(C(=O)Nc3ccccc3C)cc2Cl)CCC1=O [Example 04-20, 3-chloro-4-((2-methyl-3-oxocyclopent-1-en-1-yl)amino)-N-(o-tolyl)benzamide]	> 6.00	5.00 to 6.00	–	–	pIC50 [2]: 6.00 to 6.70; pIC50 ([3]; RAW264.7, read-out: IC50 in inhibition of transcriptional activation of the cytokines IL-6, IL-1β and TNFα): 5.30 to 7.00; pIC50 [4]: 5.30 to 7.00
Cc1sc2c(c1C)C(c1ccc(Cl)cc1)=N[C@@H](CC(=O)OC(C)(C)C)c1nnc(C)n1-2 [JQ1]	–	–	–	–	apoptosis in CD34+/CD38− and CD34+/CD38+ stem- and progenitor cells ([7]; all donors): induce apoptosis; growth-inhibition and apoptosis ([7]; primary human AML stem- and progenitor cells, including relapsed or refractory patients): leads to growth-inhibition and apoptosis
CC1=C(Nc2cc(NS(=O)(=O)c3ccccc3C)ccc2Cl)CCC1=O [Example 05-57, N-(4-chloro-3-((2-methyl-3-oxocyclopent-1-en-1-yl)amino)phenyl)-2-methylbenzenesulfonamide]	> 6.00	> 6.00	25 to 250	236 to 238	pIC50 ([5]; Homo sapiens, 24 h): 6.00 to 7.00
COC(=O)C[C@@H]1N=C(c2ccc(Cl)cc2)c2c(sc(C)c2C)-n2c(C)nnc21 [MS417]	–	–	–	–	inflammation and kidney injury (HIV-1 transgenic mice): effectively ameliorated inflammation and kidney injury

More lines, main results first:

pIC50 [1]	pIC50 (BRD4_2)	microsomal CLint at 0.5 μM [6] [µL/min/mg]	melting point [°C]	Compound	further results
> 6.00	5.00 to 6.00	25 to 250	248 to 250	CC1=C(Nc2ccc(NS(=O)(=O)c3ccccc3C)cc2Cl)CCCC1=O [Example 05-68, N-(3-chloro-4-((2-methyl-3-oxocyclohex-1-en-1-yl)amino)phenyl)-2-methylbenzenesulfonamide]	pIC50 [5, 9]: 6.00 to 7.00
> 6.00	> 6.00	25 to 250	246 to 248	CC1=C(Nc2cc(NS(=O)(=O)c3ccccc3C)ccc2Cl)CCCC1=O [Example 05-66, N-(4-chloro-3-((2-methyl-3-oxocyclohex-1-en-1-yl)amino)phenyl)-2-methylbenzenesulfonamide]	–
5.00 to 6.00	5.00 to 6.00	25 to 250	259 to 263	CC1=C(Nc2ccc3cc(C(=O)O)ccc3c2)CCCC1=O [Example 01-41, 6((2-methyl-3-oxocyclohex-1-en-1-yl)amino)-2-naphthoic acid]	–
> 6.00	5.00 to 6.00	–	–	COc1ccc(NC(=O)c2ccc(NC3=C(C)C(=O)CC3)c(Cl)c2)cc1 [Example 04-19, 3-chloro-N-(4-methoxyphenyl)-4-((2-methyl-3-oxocyclopent-1-en-1-yl)amino)benzamide]	pIC50 [2]: 6.00 to 6.70; pIC50 ([3]; RAW264.7 cells, LPS, quantitative PCR of mRNA transcript levels, read-out: IC50 in inhibition of transcriptional activation of the cytokines IL-6, IL-1β and TNFα): 5.30 to 7.00; pIC50 [4]: 5.30 to 7.00; development of colitis ([8]; CD4+CD45RBhi T cells injected intra-peritoneally into Rag1−/− mice): inhibits the development of colitis; gross morphology of the intestines ([8]; after 5-7 weeks, FIG. 2, treated mice vs disease group): gross morphology of the intestines is preserved; loss of body weight ([8]; mice weighed every week, FIG. 1): significantly (P<0.05) inhibits the loss of body weight
> 6.00	< 5.00	25 to 250	185 to 187	CC1=C(Nc2cccc(NS(=O)(=O)c3ccccc3C)c2Cl)CCCC1=O [Example 05-70, N-(2-chloro-3-((2-methyl-3-oxocyclohex-1-en-1-yl)amino)phenyl)-2-methylbenzenesulfonamide]	pIC50 [5, 9]: 6.00 to 7.00
